Results as given in patent US10376520B2, “Methods for the treatment of cardiovascular disorders” (Galapagos NV, priority 2015, dated 2019).

Test system: RA patients
Assay: LDL determination, Study 2 (RA patients, monotherapy)
Format: in vivo, human
Source text: Randomized, double-blind, placebo-controlled, multicenter, phase IIb dose finding study of Compound 1 (dosed as a [Compound 1:HCl:3H2O]) administered for 24 weeks as monotherapy to subjects with moderately to severely active rheumatoid arthritis who have an inadequate response to methotrexate alone
Double-blind, placebo-controlled, monotherapy study in subjects with moderately to severely active RA who have an inadequate response to methotrexate (MTX) (oral or parenteral).
280 subjects randomized to one of 3 doses of Compound 1 (dosed as a [Compound 1:HCl:3H2O]) or to placebo, given once daily (q.d.).
Twelve weeks of treatment with Compound 1 (dosed as a [Compound 1:HCl:3H2O]) at 50 mg, 100 mg, or 200 mg q.d.; or placebo. At Week 12, all subjects on placebo and the subjects on the 50 mg dose who have not achieved 20% improvement in swollen joint count (SJC66) and tender joint count (TJC68) will be assigned to 100 mg q.d. in a blinded fashion and will continue treatment until Week 24. Subjects in the other groups will maintain their randomized treatment until Week 24.
The determination of [LDL]-cholesterol is made using an automated method taking advantage of the selective micellary solubilization of [LDL]-cholesterol by a nonionic detergent and the interaction of a sugar compound and lipoproteins (VLDL and chylomicrons).
When a detergent is included in the enzymatic method for cholesterol determination (cholesterol esterase, cholesterol oxidase coupling reaction), the relative reactivities of cholesterol in the lipoprotein fractions increase in this order: [HDL]<chylomicrons <VLDL <[LDL]. In the presence of Mg^2+, a sugar compound markedly reduces the enzymatic reaction of the cholesterol measurement in VLDL and chylomicrons. The combination of a sugar compound with detergent enables the selective determination of [LDL]-cholesterol in serum. (Friedewald et al., 1972; Rifai et al., 1992)
Homogeneous enzymatic colorimetric assay.
In the presence of peroxidase, the hydrogen peroxide generated reacts with 4-aminoantipyrine and Sodium N-(2-hydroxy-3-sulfopropyl)-3,5-dimethoxyaniline (HSDA) to form a purple-blue dye.
The color intensity of this dye is directly proportional to the cholesterol concentration and is measured photometrically.
Human serum and plasma samples [LDL] determination was done on a Roche/Hitachi Cobas c 701/702 system which automatically calculate the analyte concentration of each sample. Samples containing precipitates are centrifuged before performing the assay.

[1] = Study 2 12 weeks results, 50 mg q.d., week 12
[2] = Study 2 12 weeks results, 100 mg q.d., week 1
[3] = Study 2 12 weeks results, 100 mg q.d., week 2
[4] = Study 2 12 weeks results, 100 mg q.d., week 4
[5] = Study 2 12 weeks results, 100 mg q.d., week 8
[6] = Study 2 12 weeks results, 100 mg q.d., week 12
[7] = Study 2 12 weeks results, 200 mg q.d., week 1
[8] = Study 2 12 weeks results, 200 mg q.d., week 2
[9] = Study 2 12 weeks results, 200 mg q.d., week 4
[10] = Study 2 12 weeks results, 200 mg q.d., week 8
[11] = Study 2 12 weeks results, 200 mg q.d., week 12
[12] = Study 2 24 weeks results, 50 mg q.d. non responders switching to 100 mg q.d. at week 12, week 1
[13] = Study 2 24 weeks results, 50 mg q.d. non responders switching to 100 mg q.d. at week 12, week 2
[14] = Study 2 24 weeks results, 50 mg q.d. non responders switching to 100 mg q.d. at week 12, week 4
[15] = Study 2 24 weeks results, 50 mg q.d. non responders switching to 100 mg q.d. at week 12, week 8
[16] = Study 2 24 weeks results, 50 mg q.d. non responders switching to 100 mg q.d. at week 12, week 12
[17] = Study 2 24 weeks results, 50 mg q.d. non responders switching to 100 mg q.d. at week 12, week 16
[18] = Study 2 24 weeks results, 50 mg q.d. non responders switching to 100 mg q.d. at week 12, week 20
[19] = Study 2 24 weeks results, 50 mg q.d. non responders switching to 100 mg q.d. at week 12, week 24
[20] = Study 2 24 weeks results, 50 mg q.d. responders, week 1
[21] = Study 2 24 weeks results, 50 mg q.d. responders, week 2
[22] = Study 2 24 weeks results, 50 mg q.d. responders, week 4
[23] = Study 2 24 weeks results, 50 mg q.d. responders, week 8
[24] = Study 2 24 weeks results, 50 mg q.d. responders, week 12
[25] = Study 2 24 weeks results, 50 mg q.d. responders, week 16
[26] = Study 2 24 weeks results, 50 mg q.d. responders, week 20
[27] = Study 2 24 weeks results, 50 mg q.d. responders, week 24
[28] = Study 2 24 weeks results, 100 mg q.d., week 1
[29] = Study 2 24 weeks results, 100 mg q.d., week 2
[30] = Study 2 24 weeks results, 100 mg q.d., week 4
[31] = Study 2 24 weeks results, 100 mg q.d., week 8
[32] = Study 2 24 weeks results, 100 mg q.d., week 12
[33] = Study 2 24 weeks results, 100 mg q.d., week 16
[34] = Study 2 24 weeks results, 100 mg q.d., week 20
[35] = Study 2 24 weeks results, 100 mg q.d., week 24
[36] = Study 2 24 weeks results, 200 mg q.d., week 1
[37] = Study 2 24 weeks results, 200 mg q.d., week 2
[38] = Study 2 24 weeks results, 200 mg q.d., week 4
[39] = Study 2 24 weeks results, 200 mg q.d., week 8
[40] = Study 2 24 weeks results, 200 mg q.d., week 12
[41] = Study 2 24 weeks results, 200 mg q.d., week 16
[42] = Study 2 24 weeks results, 200 mg q.d., week 20
[43] = Study 2 24 weeks results, 200 mg q.d., week 24
[44] = Study 2 24 weeks results, placebo switching to 100 mg q.d. at week 12, week 16
[45] = Study 2 24 weeks results, placebo switching to 100 mg q.d. at week 12, week 20
[46] = Study 2 24 weeks results, placebo switching to 100 mg q.d. at week 12, week 24
[47] = placebo switching to 100 mg q.d. at week 12, week 20
[48] = placebo switching to 100 mg q.d. at week 12, week 24

## O=C(Nc1nc2cccc(-c3ccc(CN4CCS(=O)(=O)CC4)cc3)n2n1)C1CC1 [Compound 1, cyclopropanecarboxylic acid {5-[4-(1,1-dioxo-thiomorpholin-4-ylmethyl)-phenyl]-[1,2,4]triazolo[1,5-a]pyridin-2yl}-amide]
[1]
  [LDL] Mean CFB: 0.090 mmol/L
  [LDL] Median CFB: 0.040 mmol/L
[2]
  [LDL] Mean CFB: 0.116 mmol/L
  [LDL] Median CFB: 0.070 mmol/L
[3]
  [LDL] Mean CFB: 0.105 mmol/L
  [LDL] Median CFB: -0.050 mmol/L
[4]
  [LDL] Mean CFB: 0.195 mmol/L
  [LDL] Median CFB: 0.140 mmol/L
[5]
  [LDL] Mean CFB: 0.162 mmol/L
  [LDL] Median CFB: 0.140 mmol/L
[6]
  [LDL] Mean CFB: 0.278 mmol/L
  [LDL] Median CFB: 0.180 mmol/L
[7]
  [LDL] Mean CFB: 0.209 mmol/L
  [LDL] Median CFB: 0.180 mmol/L
[8]
  [LDL] Mean CFB: 0.192 mmol/L
  [LDL] Median CFB: 0.130 mmol/L
[9]
  [LDL] Mean CFB: 0.216 mmol/L
  [LDL] Median CFB: 0.290 mmol/L
[10]
  [LDL] Mean CFB: 0.212 mmol/L
  [LDL] Median CFB: 0.230 mmol/L
[11]
  [LDL] Mean CFB: 0.347 mmol/L
  [LDL] Median CFB: 0.315 mmol/L
[12]
  [LDL] Mean CFB: 0.08 mmol/L
  [LDL] Median CFB: 0.07 mmol/L
[13]
  [LDL] Mean CFB: 0.00 mmol/L
  [LDL] Median CFB: -0.02 mmol/L
[14]
  [LDL] Mean CFB: 0.17 mmol/L
  [LDL] Median CFB: 0.05 mmol/L
[15]
  [LDL] Mean CFB: 0.10 mmol/L
  [LDL] Median CFB: 0.10 mmol/L
[16]
  [LDL] Mean CFB: 0.11 mmol/L
  [LDL] Median CFB: 0.09 mmol/L
[17]
  [LDL] Mean CFB: 0.22 mmol/L
  [LDL] Median CFB: 0.20 mmol/L
[18]
  [LDL] Mean CFB: 0.03 mmol/L
  [LDL] Median CFB: -0.04 mmol/L
[19]
  [LDL] Mean CFB: 0.14 mmol/L
  [LDL] Median CFB: 0.15 mmol/L
[20]
  [LDL] Mean CFB: -0.01 mmol/L
  [LDL] Median CFB: -0.01 mmol/L
[21]
  [LDL] Mean CFB: -0.07 mmol/L
  [LDL] Median CFB: -0.06 mmol/L
[22]
  [LDL] Mean CFB: 0.01 mmol/L
  [LDL] Median CFB: -0.05 mmol/L
[23]
  [LDL] Mean CFB: 0.16 mmol/L
  [LDL] Median CFB: 0.14 mmol/L
[24]
  [LDL] Mean CFB: 0.09 mmol/L
  [LDL] Median CFB: 0.03 mmol/L
[25]
  [LDL] Mean CFB: 0.18 mmol/L
  [LDL] Median CFB: 0.16 mmol/L
[26]
  [LDL] Mean CFB: 0.00 mmol/L
  [LDL] Median CFB: 0.12 mmol/L
[27]
  [LDL] Mean CFB: 0.00 mmol/L
  [LDL] Median CFB: -0.01 mmol/L
[28]
  [LDL] Mean CFB: 0.12 mmol/L
  [LDL] Median CFB: 0.07 mmol/L
[29]
  [LDL] Mean CFB: 0.10 mmol/L
  [LDL] Median CFB: -0.05 mmol/L
[30]
  [LDL] Mean CFB: 0.19 mmol/L
  [LDL] Median CFB: 0.14 mmol/L
[31]
  [LDL] Mean CFB: 0.16 mmol/L
  [LDL] Median CFB: 0.14 mmol/L
[32]
  [LDL] Mean CFB: 0.28 mmol/L
  [LDL] Median CFB: 0.18 mmol/L
[33]
  [LDL] Mean CFB: 0.28 mmol/L
  [LDL] Median CFB: 0.20 mmol/L
[34]
  [LDL] Mean CFB: 0.25 mmol/L
  [LDL] Median CFB: 0.23 mmol/L
[35]
  [LDL] Mean CFB: 0.31 mmol/L
  [LDL] Median CFB: 0.31 mmol/L
[36]
  [LDL] Mean CFB: 0.21 mmol/L
  [LDL] Median CFB: 0.18 mmol/L
[37]
  [LDL] Mean CFB: 0.19 mmol/L
  [LDL] Median CFB: 0.13 mmol/L
[38]
  [LDL] Mean CFB: 0.22 mmol/L
  [LDL] Median CFB: 0.29 mmol/L
[39]
  [LDL] Mean CFB: 0.21 mmol/L
  [LDL] Median CFB: 0.23 mmol/L
[40]
  [LDL] Mean CFB: 0.35 mmol/L
  [LDL] Median CFB: 0.32 mmol/L
[41]
  [LDL] Mean CFB: 0.30 mmol/L
  [LDL] Median CFB: 0.23 mmol/L
[42]
  [LDL] Mean CFB: 0.29 mmol/L
  [LDL] Median CFB: 0.25 mmol/L
[43]
  [LDL] Mean CFB: 0.38 mmol/L
  [LDL] Median CFB: 0.34 mmol/L
[44]
  [LDL] Mean CFB: 0.07 mmol/L
  [LDL] Median CFB: -0.05 mmol/L
[45]
  [LDL] Mean CFB: 0.16 mmol/L
  [LDL] Median CFB: 0.03 mmol/L
[46]
  [LDL] Mean CFB: 0.10 mmol/L
  [LDL] Median CFB: 0.12 mmol/L
Placebo switching to 100 mg q.d. at week 12, week 16
  [LDL] Mean percentage CFB - 24 weeks results: 2.82%
[47]
  [LDL] Mean percentage CFB - 24 weeks results: 5.77%
  [LDL] Median percentage CFB - 24 weeks results: 1.00%
[48]
  [LDL] Mean percentage CFB - 24 weeks results: 4.50%
  [LDL] Median percentage CFB - 24 weeks results: 4.13%
